This note sets out measurements from patent US5734057A, “HIV protease inhibitors and intermediates” (Eli Lilly and Company, priority 1996, dated 1998).

Usually IC90 stands for the concentration needed for an effect of 90%. A higher IC90 goes with a need for much substance. The term IC50 denotes the concentration at which inhibition is half-maximal.

Test [1] concerns the target T1, HIV-1 protease (Human immunodeficiency virus type 1 group M subtype B, UniProt P04585).
T1 construct: HIV-1 Protease
In words: biochemical. Conditions: for IC50: read-out: Inhibitory Activity, Fluorescence Assay IC50 (converted). The method, then: These compounds may be assayed using two assays: (1) an enzyme inhibition assay, and (2) an antiviral cell culture assay.
This assay is described in detail in published European Patent Application (EPA) 0 526 009, herein incorporated by reference. Using this assay, a number of the compounds, prepared above, were assayed for HIV protease inhibitory activity.
The assay is unable to test compounds at less than a concentration of 0.16 ng/mL.

For test [2], the system named is HIV. The test can be described thus: Antiviral cell culture assay (XTT viability of HIV-infected cells). Format: cell-based. From the text:
As noted above, the compounds of formula (I) are useful as HIV protease inhibitors and for preparing HIV protease inhibitors. These compounds may be assayed using two assays: (1) an enzyme inhibition assay, and (2) an antiviral cell culture assay.
In addition, the compounds described in the present application may be tested using an antiviral cell culture assay as described in Weislow, O. S., J. of National Cancer Institute, 81(8), pages 577-586 (Apr. 19, 1989) herein incorporated by reference.
This assay compares the viability of HIV-infected cells in a cell culture medium relative to the viability of such cells in the presence of a test compound. The concentration of test compound necessary to inhibit 90% of the virus is then measured using the viability of the cells as an indicator of viral inhibition. This assay is carried out using cell lines that are sensitive to the lyric effects of HIV infection.
Specifically, this assay utilizes the metabolic reduction of a tetrazolium reagent, 2,3-bis[2-methoxy-4-nitro-5-sulfophenyl]-5-[(phenylamino carbonyl]-2H-tetrazolium hydroxide (XTT). In the presence of a viable cell, the tetrazolium reagent, XTT, ms reduced to provide XTT formazan which may be quantified using colorimetric determination (at 450 nm). The intensity of the chromogenic signal is directly proportional to the concentration of the XTT formazan, thus providing a measure of the quantity of viable cells.
The compounds prepared in Examples 9 and 10, above, were tested using this assay.
(In general: Tetrazolium dyes change colour on reduction, which living cells bring about.)

[3] abbreviates: concentration that inhibits 50% of the enzyme, assay limit 0.16 ng/mL.
Setting [4] is: Human immunodeficiency virus 1, concentration that inhibits 90%.

The structures appear in SMILES notation. Read-outs that look alike come from different tables or passages of the source.

As for `Cc1c(O)cccc1C(=O)N[C@@H](CSc1ccccc1)[C@H](O)CN1C[C@H]2CCS[C@H]2C[C@H]1C(=O)NC(C)(C)C` [Example 10, N-t-Butyl-octahydro-5[2R-hydroxy-3R-N(2'-methyl-3'-hydroxyphenylcarbonyl)amino-4-phenylthio-butyl]-(3aR,7aS)-thieno[3,2-c] pyridine-(6S)-carboxamide methanesulfonate], the inhibition at 0.00016 µg/mL in test [1] (at 0.16 ng/mL, read-out: % inhibition at stated concentration (IC74 (0.16))) is 74%. This compound yielded an IC90 in test [2] (concentration that inhibits 90%) of 10 nM. On to `CC(C)(C)NC(=O)[C@@H]1C[C@@H]2SCC[C@@H]2CN1C[C@@H](O)[C@H](Cc1ccccc1)NC(=O)OCc1ccccc1` [Example 5, N-t-Butyl-octahydro-5[2R-hydroxy-4-phenyl-3S-N(benzyloxycarbonyl)amino-butyl]-(3aR,7aS)-thieno[3,2-c]pyridine-(6S)-carboxamide], for which the IC50 in test [1] (setting [3]) is 6.3 nM. In addition, it took 2000 nM to reach the 90% level in test [2] (setting [4]) (IC90). `Cc1c(O)cccc1C(=O)N[C@@H](CSc1ccccc1)[C@H](O)CN1C[C@H]2CCS[C@H]2C[C@H]1C(=O)NC(C)(C)C` [Example 9, N-t-Butyl-octahydro-5[2R-hydroxy-3R-N(2'-methyl-3'-hydroxyphenylcarbonyl)amino-4-phenylthio-butyl]-(3aR,7aS)-thieno[3,2-c] pyridine-(6S)-carboxamide]: the IC50 in test [1] (setting [3]) was 0.315 nM. For the same compound, the IC90 in test [2] (setting [4]) worked out at 17 nM. Take `CC(C)(C)NC(=O)[C@@H]1C[C@@H]2SCC[C@@H]2CN1C[C@@H](O)[C@H](CSc1ccccc1)NC(=O)OCc1ccccc1` [Example 7, N-t-Butyl-octahydro-5[2R-hydroxy-4-thiophenyl-3R-N(benzyloxycarbonyl)amino-butyl]-(3aR,7aS)-thieno[3,2-c] pyridine-(6S)-carboxamide]: the 50% inhibitory concentration (IC50) in test [1] was 3.32 nM.
